row,melting point,Structure (SMILES)
1,97 to 100 °C,"O=C(N[C@@H](CC1CCCC1)C(=O)NC1CCCN(C(=O)c2ccccc2)CC1=O)c1ccco1 (stereo partly drawn) [Example 72, Furan-2-carboxylic acid {(S)-2-cyclopentyl-1-[3-oxo-1-(1-phenyl-methanoyl)-azepan-4-ylcarbamoyl]-ethyl}-amide]"
2,101 to 103 °C,"O=C(N[C@@H](CC1CCCC1)C(=O)NC1CCCN(C(=O)c2ccccc2)CC1=O)c1ccco1 (stereo partly drawn) [Example 71, Furan-2-carboxylic acid {(S)-2-cyclopentyl-1-[3-oxo-1-(1-phenyl-methanoyl)-azepan-4-ylcarbamoyl]-ethyl}-amide]"
3,66 to 68 °C,"O=C(N[C@@H](CC1CCCC1)C(=O)NC1CCCN(C(=O)OCc2ccccc2)CC1=O)c1ccco1 (stereo partly drawn) [Example 62, 4-{(S)-3-Cyclopentyl-2-[(1-furan-2-yl-methanoyl)-amino]-propanoylamino)-3-oxo-azepane-1-carboxylic acid benzyl ester]"
4,88 to 89 °C,"O=C(N[C@@H](CC1CCCC1)C(=O)NC1CCCN(C(=O)c2ccco2)CC1=O)c1ccco1 (stereo partly drawn) [Example 69, Furan-2-carboxylic acid {(S)-2-cyclopentyl-1-[1-(1-furan-2-yl-methanoyl)-3-oxo-azepan-4-ylcarbamoyl]-ethyl}-amide]"
5,72 to 74 °C,"O=C(N[C@@H](CC1CCCC1)C(=O)NC1CCCN(C(=O)OCc2ccccc2)CC1=O)c1ccco1 (stereo partly drawn) [Example 61, 4-{(S)-3-Cyclopentyl-2-[(1-furan-2-yl-methanoyl)-amino]-propanoylamino}-3-oxo-azepane-1-carboxylic acid benzyl ester]"
6,85 to 88 °C,"O=C(N[C@@H](CC1CCCC1)C(=O)NC1CCCN(C(=O)c2ccco2)CC1=O)c1ccco1 (stereo partly drawn) [Example 70, Furan-2-carboxylic acid {(S)-2-cyclopentyl-1-[1-(1-furan-2-yl-methanoyl)-3-oxo-azepan-4-ylcarbamoyl]-ethyl}-amide]"

# The next lines start with the molecule.
row,Structure (SMILES),melting point
1,"O=C(N[C@@H](CC1CCCC1)C(=O)NC1CCCN(S(=O)(=O)c2ccccn2)CC1=O)c1ccco1 (stereo partly drawn) [Example 64, Furan-2-carboxylic acid {(S)-2-cyclopentyl-1-[3-oxo-1-(pyridine-2-sulfonyl)-azepan-4-ylcarbamoyl]ethyl}-amide]",77 to 80 °C
2,"O=C(N[C@@H](CC1CCCC1)C(=O)NC1CCCN(S(=O)(=O)c2ccccn2)CC1=O)c1ccco1 (stereo partly drawn) [Example 63, Furan-2-carboxylic acid {(S)-2-cyclopentyl-1-[3-oxo-1-(pyridine-2-sulfonyl)-azepan-4-ylcarbamoyl]ethyl}-amide]",81 to 84 °C
3,"CS(=O)(=O)N1CCCC(NC(=O)[C@H](CC2CCCC2)NC(=O)c2ccco2)C(=O)C1 (stereo partly drawn) [Example 65, Furan-2-carboxylic acid [(S)-2-cyclopentyl-1-(1-methanesulfonyl-3-oxo-azepan-4ylcarbamoyl)-ethyl]-amide]",167 to 170 °C
4,"O=C(N[C@@H](CC1CCCC1)C(=O)NC1CCCN(S(=O)(=O)c2ccccc2)CC1=O)c1ccco1 (stereo partly drawn) [Example 67, Furan-2-carboxylic acid [(S)-1-(1-benzenesulfonyl-3-oxo-azepan-4 ylcarbamoyl)-2-cyclopentyl-ethyl]-amide]",88 to 90 °C
5,"O=C(N[C@@H](CC1CCCC1)C(=O)NC1CCCN(S(=O)(=O)c2ccccc2)CC1=O)c1ccco1 (stereo partly drawn) [Example 68, Furan-2-carboxylic acid [(S)-1-(1-benzenesulfonyl-3-oxo-azepan-4-ylcarbamoyl)-2-cyclopentyl-ethyl]-amide]",166 to 167 °C
6,"CS(=O)(=O)N1CCCC(NC(=O)[C@H](CC2CCCC2)NC(=O)c2ccco2)C(=O)C1 (stereo partly drawn) [Example 66, Furan-2-carboxylic acid [(S)-2-cyclopentyl-1-(1-methanesulfonyl-3-oxo-azepan-4-ylcarbamoyl)-ethyl]-amide]",158 to 161 °C

# From patent US20060052365A1, “Protease inhibitors” (priority 2002, published 2006)
